Data taken from PMC11079024, “Identification of a family of species-selective complex I inhibitors as potential anthelmintics” (Nature Communications, 2024).
Like-named read-outs stand apart in the source and are kept apart here.

Molecular target: C. elegans (N2) complex I (NADH:ubiquinone oxidoreductase) (Caenorhabditis elegans, UniProt P24887+Q93873+Q94360)
Assay: biochemical
Format: biochemical
Settings: for Log IC50 C. elegans complex I: log10 of IC50 in µM, C. elegans mitochondria
Procedure, shortened: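 Activity expressed as percent of solvent control. Complex I rate came from DCIP reduction at 600 nm (initial linear slope, 15 min) with NADH and decylubiquinone as substrates, plus antimycin A and KCN, in pH 7.5 KPi/BSA buffer. Isolated, thrice freeze-thawed mitochondria used at 0.2 mg/mL.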

[1] = read-out: C. elegans mitochondrial complex I activity
[2] = in vitro complex I dose response on C. elegans mitochondria, average of at least two biological replicates, fit in R (DRC), read-out: IC50 C. elegans complex I
[3] = wild-type C. elegans mitochondria, estimated from fitted dose-response curves, read-out: C. elegans Complex I IC50
[4] = wild-type (N2) mitochondria, read-out: C. elegans Complex I IC50
[5] = wild-type C. elegans mitochondria, read-out: C. elegans Complex I IC50

Sequence of C. elegans (N2) complex I (NADH:ubiquinone oxidoreductase) (Q94360 17-199): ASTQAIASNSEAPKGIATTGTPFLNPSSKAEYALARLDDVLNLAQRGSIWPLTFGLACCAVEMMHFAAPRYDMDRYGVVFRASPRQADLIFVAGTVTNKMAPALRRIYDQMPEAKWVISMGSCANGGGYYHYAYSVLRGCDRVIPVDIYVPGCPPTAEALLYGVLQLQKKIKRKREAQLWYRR
Sequence of C. elegans (N2) complex I (NADH:ubiquinone oxidoreductase) (P24887 whole entry): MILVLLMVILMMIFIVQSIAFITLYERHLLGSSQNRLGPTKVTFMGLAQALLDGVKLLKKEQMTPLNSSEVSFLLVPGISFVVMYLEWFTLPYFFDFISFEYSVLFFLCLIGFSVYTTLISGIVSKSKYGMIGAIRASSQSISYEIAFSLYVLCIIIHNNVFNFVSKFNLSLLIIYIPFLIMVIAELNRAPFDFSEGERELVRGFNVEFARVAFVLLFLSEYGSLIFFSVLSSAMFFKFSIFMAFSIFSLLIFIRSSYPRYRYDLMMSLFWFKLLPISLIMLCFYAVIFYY
Sequence of C. elegans (N2) complex I (NADH:ubiquinone oxidoreductase) (Q93873 31-482): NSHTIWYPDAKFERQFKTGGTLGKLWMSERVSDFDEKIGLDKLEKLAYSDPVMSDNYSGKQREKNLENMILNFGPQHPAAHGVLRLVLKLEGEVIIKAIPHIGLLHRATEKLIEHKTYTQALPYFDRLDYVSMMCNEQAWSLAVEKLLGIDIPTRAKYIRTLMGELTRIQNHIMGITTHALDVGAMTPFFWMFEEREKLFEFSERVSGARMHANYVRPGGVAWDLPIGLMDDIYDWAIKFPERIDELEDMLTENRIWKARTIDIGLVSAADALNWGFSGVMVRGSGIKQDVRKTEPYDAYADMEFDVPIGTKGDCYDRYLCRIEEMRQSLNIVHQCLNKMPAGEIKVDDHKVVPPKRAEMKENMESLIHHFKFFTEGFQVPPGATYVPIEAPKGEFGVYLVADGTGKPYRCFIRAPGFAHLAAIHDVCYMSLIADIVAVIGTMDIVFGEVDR

SMILES: Cc1ccc(C(C)C)c(OCC(O)Cn2cnc3ccccc32)c1 (stereo not shown) [Compound 6093301]
- activity at 0.0001 µM [1]: 99.6%
- activity at 0.0005 µM [1]: 97.6%
- activity at 0.001 µM [1]: 98.6%
- activity at 0.0025 µM [1]: 105%
- activity at 0.005 µM [1]: 96.1%
- activity at 0.013 µM [1]: 93.6%
- activity at 0.025 µM [1]: 90.6%
- activity at 0.063 µM [1]: 81.2%
- activity at 0.125 µM [1]: 72.6%
- activity at 0.313 µM [1]: 50.3%
- activity at 0.625 µM [1]: 38.5%
- activity at 1.5 µM [1]: 20.3%
- activity at 3 µM [1]: 11.5%
- activity at 15 µM [1]: 1.13%
- activity at 37.5 µM [1]: 0%
- activity at 75 µM [1]: 0%
- IC50 [2]: 360 nM
- Log IC50 C. elegans complex I: -0.44 µM
- IC50 [3]: 360 nM

SMILES: Cc1cccc(OCCn2c(C)nc3ccccc32)c1 [Compound 6285199]
- activity at 0.0001 µM [1]: 94.3%
- activity at 0.0005 µM [1]: 99.3%
- activity at 0.001 µM [1]: 86.9%
- activity at 0.0025 µM [1]: 85.8%
- activity at 0.005 µM [1]: 87.6%
- activity at 0.013 µM [1]: 90.6%
- activity at 0.025 µM [1]: 92.4%
- activity at 0.063 µM [1]: 78.1%
- activity at 0.125 µM [1]: 81.6%
- activity at 0.313 µM [1]: 54.6%
- activity at 0.625 µM [1]: 53.7%
- activity at 1.5 µM [1]: 35.3%
- activity at 3 µM [1]: 23.4%
- activity at 15 µM [1]: 3.64%
- activity at 37.5 µM [1]: 1.37%
- activity at 75 µM [1]: 1.88%
- IC50 [2]: 840 nM
- Log IC50 C. elegans complex I: -0.0757 µM
- IC50 [3]: 840 nM

SMILES: Cc1ccc(Cn2c(C(C)C)nc3ccccc32)cc1 [Compound 6586153]
- IC50 [2]: 9430 nM
- Log IC50 C. elegans complex I: 0.97 µM
- IC50 [4]: 9430 nM
- IC50 [5]: 9430 nM

SMILES: Cc1nc2ccccc2n1Cc1ccccc1Cl [Compound 6707368]
- IC50 [2]: 560 nM
- Log IC50 C. elegans complex I: -0.25 µM
- IC50 [4]: 560 nM
- IC50 [3]: 560 nM

SMILES: Clc1ccc(Cn2cnc3ccccc32)c(Cl)c1 [Compound 6750659]
- activity at 0.0001 µM [1]: 89.4%
- activity at 0.0005 µM [1]: 104%
- activity at 0.001 µM [1]: 101%
- activity at 0.0025 µM [1]: 110%
- activity at 0.005 µM [1]: 103%
- activity at 0.013 µM [1]: 98.1%
- activity at 0.025 µM [1]: 98.4%
- activity at 0.063 µM [1]: 84.8%
- activity at 0.125 µM [1]: 79.5%
- activity at 0.313 µM [1]: 62.1%
- activity at 0.625 µM [1]: 45.6%
- activity at 1.5 µM [1]: 24.9%
- activity at 3 µM [1]: 16.1%
- activity at 15 µM [1]: 4.66%
- activity at 37.5 µM [1]: 3.82%
- activity at 75 µM [1]: 5.12%
- IC50 [2]: 450 nM
- Log IC50 C. elegans complex I: -0.35 µM
- IC50 [4]: 450 nM
- IC50 [3]: 450 nM

SMILES: C=CCn1c(-c2ccc(N(C)C)cc2)nc2ccccc21 [Compound 6873298]
- IC50 [2]: 13200 nM
- Log IC50 C. elegans complex I: 1.12 µM
- IC50 [3]: 13200 nM

SMILES: CCCn1c(COc2ccc(C)cc2)nc2ccccc21 [Compound 6944471]
- activity at 0.0001 µM [1]: 95.2%
- activity at 0.0005 µM [1]: 103%
- activity at 0.001 µM [1]: 96.6%
- activity at 0.0025 µM [1]: 100%
- activity at 0.005 µM [1]: 90.8%
- activity at 0.013 µM [1]: 108%
- activity at 0.025 µM [1]: 106%
- activity at 0.063 µM [1]: 111%
- activity at 0.125 µM [1]: 123%
- activity at 0.313 µM [1]: 103%
- activity at 0.625 µM [1]: 113%
- activity at 1.5 µM [1]: 107%
- activity at 3 µM [1]: 96.1%
- activity at […] (Dose 7.5 µM, read-out: C. elegans mitochondrial complex I activity): 108%
- activity at 15 µM [1]: 88.5%
- activity at 37.5 µM [1]: 89.5%
- activity at 75 µM [1]: 64.7%
- IC50 [3]: > 75000 nM

SMILES: Cc1ccc(CSCc2nc3ccccc3[nH]2)cc1 [Compound 7121781]
- activity at 0.0001 µM [1]: 100%
- activity at 0.0005 µM [1]: 95.4%
- activity at 0.001 µM [1]: 94.3%
- activity at 0.0025 µM [1]: 98%
- activity at 0.005 µM [1]: 98.1%
- activity at 0.013 µM [1]: 104%
- activity at 0.025 µM [1]: 99.3%
- activity at 0.063 µM [1]: 89.7%
- activity at 0.125 µM [1]: 95.8%
- activity at 0.313 µM [1]: 87.2%
- activity at 0.625 µM [1]: 99.9%
- activity at 1.5 µM [1]: 94%
- activity at 3 µM [1]: 73.4%
- activity at 15 µM [1]: 71.1%
- activity at 37.5 µM [1]: 43.5%
- activity at 75 µM [1]: 23.3%
- IC50 [2]: 28500 nM
- Log IC50 C. elegans complex I: 1.46 µM
- IC50 [5]: 28500 nM

SMILES: Clc1ccc(OCCn2cnc3ccccc32)c(Cl)c1 [Compound 7221649]
- activity at 0.0001 µM [1]: 92.4%
- activity at 0.0005 µM [1]: 97.1%
- activity at 0.001 µM [1]: 98.6%
- activity at 0.0025 µM [1]: 106%
- activity at 0.005 µM [1]: 107%
- activity at 0.013 µM [1]: 101%
- activity at 0.025 µM [1]: 101%
- activity at 0.063 µM [1]: 94.8%
- activity at 0.125 µM [1]: 93.4%
- activity at 0.313 µM [1]: 89.3%
- activity at 0.625 µM [1]: 84.8%
- activity at 1.5 µM [1]: 71.9%
- activity at 3 µM [1]: 58.5%
- activity at 15 µM [1]: 22.2%
- activity at 37.5 µM [1]: 11.4%
- activity at 75 µM [1]: 6.54%
- IC50 [2]: 4190 nM
- Log IC50 C. elegans complex I: 0.62 µM
- IC50 [5]: 4190 nM

SMILES: Nc1nc2ccccc2n1Cc1ccc(Br)cc1 [Compound 7313068]
- IC50 [2]: 340 nM
- Log IC50 C. elegans complex I: -0.47 µM
- IC50 [4]: 340 nM
- IC50 [3]: 340 nM

SMILES: Cc1nc2ccccc2n1Cc1ccc(C(C)C)cc1 [Compound 7353551]
- IC50 [2]: 430 nM
- Log IC50 C. elegans complex I: -0.37 µM
- IC50 [4]: 430 nM
- IC50 [3]: 430 nM

SMILES: CCCOc1ccc(Cn2cnc3ccccc32)cc1 [Compound 7355741]
- activity at 0.0001 µM [1]: 85.2%
- activity at 0.0005 µM [1]: 94.7%
- activity at 0.001 µM [1]: 89.8%
- activity at 0.0025 µM [1]: 99%
- activity at 0.005 µM [1]: 86.1%
- activity at 0.013 µM [1]: 94.6%
- activity at 0.025 µM [1]: 90.6%
- activity at 0.063 µM [1]: 82.3%
- activity at 0.125 µM [1]: 77.2%
- activity at 0.313 µM [1]: 62.4%
- activity at 0.625 µM [1]: 47.9%
- activity at 1.5 µM [1]: 31.8%
- activity at 3 µM [1]: 15.1%
- activity at 15 µM [1]: 3.6%
- activity at 37.5 µM [1]: 5.38%
- activity at 75 µM [1]: 7.89%
- IC50 [2]: 620 nM
- Log IC50 C. elegans complex I: -0.21 µM
- IC50 [4]: 620 nM
- IC50 [3]: 620 nM

SMILES: Cc1ccc(OCCn2cnc3ccccc32)c(C)c1 [Compound 7706808]
- activity at 0.0001 µM [1]: 101%
- activity at 0.0005 µM [1]: 107%
- activity at 0.001 µM [1]: 103%
- activity at 0.0025 µM [1]: 109%
- activity at 0.005 µM [1]: 101%
- activity at 0.013 µM [1]: 107%
- activity at 0.025 µM [1]: 105%
- activity at 0.063 µM [1]: 101%
- activity at 0.125 µM [1]: 94.3%
- activity at 0.313 µM [1]: 97.4%
- activity at 0.625 µM [1]: 70.9%
- activity at 1.5 µM [1]: 55.5%
- activity at 3 µM [1]: 44.2%
- activity at 15 µM [1]: 16.3%
- activity at 37.5 µM [1]: 13.2%
- activity at 75 µM [1]: 13.5%
- IC50 [2]: 1450 nM
- Log IC50 C. elegans complex I: 0.16 µM
- IC50 [3]: 1450 nM
